Values quoted from earlier work as cited in patent US12311060B2 (priority 2017, dated 2025).

Settings: rodent models

## C/C=C1\C2C=C(C)C[C@]1(N)c1ccc(=O)[nH]c1C2 (stereo in doubt) [huperzine A, (1R,9S,13E)-1-amino-13-ethylidene-11-methyl-6-azatricyclo[7.3.1.02,7]trideca-2(7),3,10-trien-5-one]
  efficacy as an anticonvulsant in words: very high efficacy
